Test results as given in patent publication US20200222372A1 (Ovid Therapeutics Inc., priority 2017, published 2020).

Key:
onset of REM sleep = assay: Delay of onset of REM sleep after falling asleep in narcoleptic patient; type: in vivo, human (narcoleptic patient); details: 0.5 mg to 25 mg gaboxadol or salt
Procedure: As mentioned above, people with narcolepsy frequently abnormally enter REM sleep within 15 minutes of falling asleep. […] Without wishing to be bound by any theory, symptoms associated with narcolepsy such as cataplexy, sleep paralysis, hallucinations, and automatic behaviors closely mimic the natural physiologic response that occurs during REM sleep. By inducing a more normal REM sleep architecture in narcoleptic patients, symptoms associated with narcolepsy are reduced or alleviated. […] In embodiments, the delay of onset of REM sleep is about 30 minutes or longer. In embodiments, the delay of onset of REM sleep is about 45 minutes or longer. In embodiments, the delay of onset of REM sleep is about 60 minutes or longer. In embodiments, the delay of onset of REM sleep is about 75 minutes or longer.

[1] = human, in vivo

With `Oc1noc2c1CCNC2` [gaboxadol, 4,5,6,7-tetrahydroisoxazolo [5,4-c] pyridine-3-ol] as the compound, how does the “onset of REM sleep after falling asleep” value (onset of REM sleep) read?
Its value is no less than 30 min.

And the “CL for 10 mg IV (in CL/F row)” value [1]?
Its value is 438 mL/min.
